From US6723736B2, “Tricyclic compounds and uses thereof” (Theracos, Inc., priority 2000, dated 2004)

Key:
COX-2 = target: T1, COX-2 (Mus musculus, UniProt Q05769); assay: LPS-induced COX-2 activity in RAW264.7 cells (PGE2 EIA); assay type: cell-based, murine; conditions: RAW264.7, LPS 0.1 μg/ml 6 hr; higher concentrations of compound B (1-100 μM tested); dexamethasone 1 μM
T1 construct: examined in LPS-stimulated RAW cells; endogenous in cells; host or cells: RAW264.7 cells, LPS-stimulated (0.1 µg/ml, 6 hr), then lysed
T1 sequence (Q05769 18-604): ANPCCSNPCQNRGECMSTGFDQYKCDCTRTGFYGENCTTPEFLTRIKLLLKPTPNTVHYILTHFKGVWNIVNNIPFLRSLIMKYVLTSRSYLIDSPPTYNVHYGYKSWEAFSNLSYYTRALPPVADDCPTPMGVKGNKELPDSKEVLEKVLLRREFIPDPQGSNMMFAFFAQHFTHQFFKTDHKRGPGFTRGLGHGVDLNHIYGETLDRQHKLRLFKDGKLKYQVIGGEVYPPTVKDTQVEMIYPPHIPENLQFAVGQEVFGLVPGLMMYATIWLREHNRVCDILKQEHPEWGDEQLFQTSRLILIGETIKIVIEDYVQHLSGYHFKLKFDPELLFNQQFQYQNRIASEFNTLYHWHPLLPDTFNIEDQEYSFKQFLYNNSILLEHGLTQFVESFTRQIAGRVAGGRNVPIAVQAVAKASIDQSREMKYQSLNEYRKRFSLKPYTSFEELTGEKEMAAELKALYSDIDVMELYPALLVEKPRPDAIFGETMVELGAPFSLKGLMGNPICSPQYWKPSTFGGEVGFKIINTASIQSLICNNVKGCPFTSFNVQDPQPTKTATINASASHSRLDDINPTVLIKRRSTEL
Description: (§1) In this experiment, the inhibitory effect of compound B was compared to that of dexamethasone, a potent inhibitor of COX-2 expression. RAW264.7 cells were grown in RPMI-1640 medium containing 3% FBS and pre-incubated for 1 hr at 37° C. with compound B (1, 3, 10, 30 or 100 μM), dexamethasone (Dex, 1 μM), or without drug. After 1 hr LPS (0.1 μg/ml) was added, and the cells were further incubated for 6 hr at 37° C. Control cells received neither drug nor LPS. Cells were collected, lysed and assayed for cyclooxygenase activities essentially according to the method of Brideau et al. (Inflamm Res 45:68-74, 1996). COX-2 activity was measured using the Biotrak Prostaglandin E2 (PGE2) EIA Kit, and COX-1 activity was determined using the Biotrak Thromboxane B2 (TXB2) EIA Kit, both from Amersham Pharmacia Biotech (Piscataway, N.J.).

TNF-alpha production = assay: Inhibition of LPS-induced TNF-alpha production in RAW264.7 cells (ELISA); assay type: cell-based, murine; conditions: RAW264.7, 1-100 μM compound 1 hr pre-incubation, LPS 0.1 μg/ml 6 hr
Description: The ability of compound B to inhibit TNF-alpha production was examined in a standard in vitro model of inflammation—the murine macrophage-like cell line RAW264.7 stimulated with lipopolysaccharides (LPS). RAW264.7 cells were grown in RPMI-1640 medium containing 3% FBS and pre-incubated for 1 hr at 37° C. with varying concentrations (1, 3, 10, 30 or 100 μM) of compound B. LPS (0.1 μg/ml) was then added, and the cells were further incubated for 6 hr at 37° C. in a 5% carbon dioxide atmosphere. Cell supernatants were then collected, aliquoted, and assayed for TNF-alpha by ELISA with anti-TNF-alpha antibody.

COX-1 = target: T2, COX-1 (Mus musculus, UniProt P22437); assay: Constitutive COX-1 activity in RAW264.7 cells (TXB2 EIA); assay type: cell-based, murine; conditions: RAW264.7, LPS 0.1 μg/ml 6 hr; higher concentrations of compound B (1-100 μM tested); dexamethasone 1 μM
T2 construct: having no effect on the constitutively expressed COX-1 activity; endogenous in cells; host or cells: RAW264.7 cells, then lysed
T2 sequence (P22437 27-602): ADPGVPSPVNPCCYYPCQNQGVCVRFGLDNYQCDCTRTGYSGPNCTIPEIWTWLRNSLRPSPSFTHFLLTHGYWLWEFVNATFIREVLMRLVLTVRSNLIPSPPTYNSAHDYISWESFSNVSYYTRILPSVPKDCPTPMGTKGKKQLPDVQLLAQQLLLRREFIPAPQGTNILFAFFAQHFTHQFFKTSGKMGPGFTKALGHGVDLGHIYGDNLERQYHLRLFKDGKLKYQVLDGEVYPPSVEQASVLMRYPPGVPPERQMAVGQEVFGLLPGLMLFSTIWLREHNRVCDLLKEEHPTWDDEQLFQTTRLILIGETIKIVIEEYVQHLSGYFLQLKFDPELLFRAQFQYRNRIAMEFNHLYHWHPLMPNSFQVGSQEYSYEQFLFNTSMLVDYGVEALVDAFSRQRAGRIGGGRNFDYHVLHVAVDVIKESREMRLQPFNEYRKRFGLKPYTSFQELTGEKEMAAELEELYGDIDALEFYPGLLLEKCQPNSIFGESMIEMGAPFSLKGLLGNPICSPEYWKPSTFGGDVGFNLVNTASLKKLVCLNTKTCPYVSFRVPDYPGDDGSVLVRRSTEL
Description: as §1

[1] = system: TNF-alpha induced killing of WEHI-13VAR cells; assay: Inhibition of TNF-alpha induced cell killing (MTT viability); assay type: cell-based, mouse
Description: Compounds B and E were tested for their ability to inhibit TNF-alpha induced killing of cultured mouse fibrosarcoma cells. WEHI-13VAR cells were grown in buffered RPMI-1640 medium containing 3% FBS and assayed for TNF-alpha induced cell death as described by Khabar et al. (Immunol Lett 46:107-10, 1995). Cells were co-incubated for 20 hr with 100 pg/ml (FIG. 1A) or 1 pg/ml (FIG. 1B) of TNF-alpha and 100 μg/ml of berberine, compound B or compound E. Controls included cells receiving TNF-alpha but no drug, as well as cells receiving no TNF-alpha and treated with or without NP-40 lysis buffer. Cell viability was assayed using the dye MTT (3-(4,5-dimethylthiozol-2-yl)-2,5-diphenyl tetrazolium bromide) as described.
The dose response was measured for the ability of compound B to inhibit TNF-alpha induced killing of cultured mouse fibrosarcoma cells. In this experiment, the inhibitory action of compound B was compared to that of a chimeric recombinant protein dimer containing soluble TNF receptor fused to the Fc portion of immunoglobulin heavy chain (Mohler KM et al., J Immunol 151:1548-61,1993), a known antagonist of TNF-alpha mediated cell killing. WEHI-13VAR cells were grown in buffered RPMI-1640 medium containing 3% FBS and assayed for TNF-alpha induced cell death as described by Khabar et al. (Immunol Lett 46:107-10, 1995). […]

IL-6 production = assay: Inhibition of LPS-induced IL-6 production in RAW264.7 cells (ELISA); assay type: cell-based, murine; conditions: RAW264.7, 1-100 μM compound 1 hr pre-incubation, LPS 0.1 μg/ml 6 hr
Description: The ability of compound B to inhibit IL-6 production was also examined in LPS-stimulated RAW cells. RAW264.7 cells were grown in RPMI-1640 medium containing 3% FBS and pre-incubated for 1 hr at 37° C. with varying concentrations (1, 3, 10, 30 or 100 μM) of compound B. LPS (0.1 μg/ml) was then added, and the cells were further incubated for 6 hr at 37° C. in a 5% carbon dioxide atmosphere. Cell supernatants were then collected, aliquoted, and assayed for IL-6 by ELISA with anti-IL-6 antibody.

[2] = system: Human peripheral blood mononuclear cells (PBMC); assay: PBMC cell viability (MTS dye exclusion assay); assay type: cell-based; conditions: 20 hr, 1-100 μM
Description: (§2) Human peripheral blood mononuclear cells (PBMC) were purified from human blood using Ficoll-Paque PLUS separation medium (Amersham Pharmacia Biotech) according to the manufacturer's recommended protocol. After centrifugation, the central PBMC layer was collected, washed twice with phosphate buffered saline (PBS) and then plated in a 96-well plate at a density of 2×10^5 cells/well in RPMI-1640 medium containing 10% FBS. The cells were preincubated with dexamethasone (1 μM) or Compound B (1, 10, 30 or 100 μM) for 1 hr and then challenged with LPS (1 μg/ml) for 20 hr. Cells receiving no drug treatment, incubated with or without LPS, served as controls. The cell supernatants were collected, and the amount of IL-10 in each was measured by standard ELISA. […] To confirm that the observed decrease in IL-10 was not due to cytotoxicity, the PBMC were plated in a separate plate, incubated for 20 hr with the same range of doses of Compound B, and the cell viability was assessed by a standard MTS dye exclusion assay (4-hr incubation with MTS).

IL-10 production = assay: Inhibition of LPS-induced IL-10 production in human PBMC (ELISA); assay type: cell-based; conditions: human PBMC, 1, 10, 30 or 100 μM 1 hr preincubation, LPS 1 μg/ml 20 hr
Description: as §2

[3] = system: collagen-induced arthritis in male DBA/1 Lac mice; assay: Suppression of collagen-induced arthritis in mice; assay type: in vivo; conditions: 50 mg/kg orally daily for 17 days, compared to vehicle-treated group
Description: The ability of compound B to reduce inflammation in an animal model of arthritis was also studied. Arthritis was induced by intradermal administration of collagen (100 μg/mice) in complete adjuvant in male DBA/1 Lac mice 7 weeks old. The booster immunization (100 μg/mice) in incomplete adjuvant was given subcutaneously on day 21. Two days later, when arthritic scores were around 1, animals were divided into two groups. One group received 50 mg/kg dose of compound B orally for 17 days daily. The second group received 10% PEG in water and was used as a vehicle-treated group. Body weight (FIG. 6, panel A), clinical score (FIG. 6, panel B), the number of joints affected (FIG. 6, panel C) and paw thickness (FIG. 6, panel D) were monitored 24 hours after drug administration during the treatment period.

COc1ccc(-c2ncc3c(OC)c(OC)ccc3c2O)cc1 [Compound B] was tested, and the “effect on inducible COX-2 activity” value (COX-2) was “completely and selectively abrogated”, the “inhibition of LPS-induced TNF-alpha production” value (TNF-alpha production) was about 50% and the “effect on constitutively expressed COX-1 activity” value (COX-1) was “no effect”. For the same molecule, the “concentration at which the maximal inhibitory effect on TNF-alpha induced cell killing was attained” value ([1]; 100 pg/ml or 50 pg/ml TNF-alpha, 20 hr, inhibition proportional to dose up to this concentration) was 10 µM, the “inhibition of TNF-alpha induced cell killing (increased cell viability)” value ([1]; 100 μg/ml compound, 100 pg/ml or 1 pg/ml TNF-alpha, 20 hr co-incubation, relative to untreated or berberine-treated cells) was “inhibited TNF-alpha induced cell killing” and the “inhibition of LPS-induced IL-6 production” value (IL-6 production) was “up to 60%”. For the same molecule, the “loss in cell viability (cytotoxicity)” value [2] was “no significant loss in cell viability”, the “inhibition of LPS-induced IL-10 production” value (IL-10 production) was “dose-dependent inhibition” and the body weight [3] was “No change in body weight”. For the same molecule, the clinical score [3] was “significantly lower clinical scores”, the “number of joints affected” value [3] was “fewer joints affected” and the paw thickness [3] was “reduced paw thickness”.
